Data on six compounds can be found in ChEMBL document CHEMBL1201862, “PubChem BioAssay data set” (2004).

The target of assay [1] is Adenosylmethionine-8-amino-7-oxononanoate aminotransferase (Mycobacterium tuberculosis, UniProt P9WQ81). As to the kind of experiment: Mycobacterium tuberculosis BioA enzyme inhibitor Measured in Biochemical System Using Plate Reader - 2163-02_Inhibitor_Dose_CherryPick_Activity. It counts as functional, Mycobacterium tuberculosis UT205.
In assay [2] the target is Ras and Rab interactor 1/Tyrosine-protein kinase ABL1 (Homo sapiens, UniProt P00519+Q13671). In kind it is functional.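 Further: biochemical TR-FRET dose-response test measuring inhibition of binding between Rin1 and Abl proteins.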
For assay [3], the target named is T1, Sentrin-specific protease 8 (Homo sapiens, UniProt Q96LD8).
T1 sequence (Q96LD8 whole entry): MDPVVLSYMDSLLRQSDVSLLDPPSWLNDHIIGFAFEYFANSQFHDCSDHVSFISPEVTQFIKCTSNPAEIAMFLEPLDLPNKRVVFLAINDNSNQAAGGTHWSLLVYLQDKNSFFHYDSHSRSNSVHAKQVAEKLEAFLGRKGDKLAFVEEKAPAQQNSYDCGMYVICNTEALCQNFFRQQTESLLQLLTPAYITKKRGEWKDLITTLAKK
Briefly: inhibition of human SENP8 cleavage activity – biochemical, luminescence, SAR follow-up (AID 504501). In kind it is functional.

The target in assay [4] is T2, Sentrin-specific protease 6 (Homo sapiens, UniProt Q9GZR1).
T2 sequence (Q9GZR1 whole entry): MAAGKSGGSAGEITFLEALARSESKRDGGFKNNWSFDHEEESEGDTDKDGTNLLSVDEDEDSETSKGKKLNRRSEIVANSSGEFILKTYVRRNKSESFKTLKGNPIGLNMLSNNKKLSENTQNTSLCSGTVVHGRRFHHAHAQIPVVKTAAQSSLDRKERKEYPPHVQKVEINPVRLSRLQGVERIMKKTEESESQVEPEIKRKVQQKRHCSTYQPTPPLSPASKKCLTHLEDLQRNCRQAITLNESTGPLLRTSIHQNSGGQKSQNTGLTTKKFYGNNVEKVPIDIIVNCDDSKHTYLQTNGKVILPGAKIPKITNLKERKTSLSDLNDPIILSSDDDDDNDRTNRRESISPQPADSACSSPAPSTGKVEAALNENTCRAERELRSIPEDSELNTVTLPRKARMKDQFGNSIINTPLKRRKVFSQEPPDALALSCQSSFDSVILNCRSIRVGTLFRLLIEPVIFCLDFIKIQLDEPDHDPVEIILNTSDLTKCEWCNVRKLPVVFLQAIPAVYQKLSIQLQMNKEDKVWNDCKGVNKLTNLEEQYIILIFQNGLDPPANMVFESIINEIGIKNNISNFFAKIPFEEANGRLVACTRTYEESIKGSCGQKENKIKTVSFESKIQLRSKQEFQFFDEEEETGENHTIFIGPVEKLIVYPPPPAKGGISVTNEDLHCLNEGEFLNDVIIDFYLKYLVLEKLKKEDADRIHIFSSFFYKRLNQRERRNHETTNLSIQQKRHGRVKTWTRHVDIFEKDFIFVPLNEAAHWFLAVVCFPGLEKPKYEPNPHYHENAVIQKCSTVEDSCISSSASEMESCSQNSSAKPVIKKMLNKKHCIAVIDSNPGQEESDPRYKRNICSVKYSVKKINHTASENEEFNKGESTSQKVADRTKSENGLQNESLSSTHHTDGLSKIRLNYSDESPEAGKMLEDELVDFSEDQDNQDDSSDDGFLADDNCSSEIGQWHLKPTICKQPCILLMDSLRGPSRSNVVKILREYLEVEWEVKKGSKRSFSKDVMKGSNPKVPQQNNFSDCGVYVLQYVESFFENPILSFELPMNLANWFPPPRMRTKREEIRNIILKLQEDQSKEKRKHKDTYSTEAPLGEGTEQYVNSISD
Briefly: SAR Analysis of small molecule inhibitors of Sentrin-specific protease 6 (SENP6) using a Luminescent assay. [Related pubchem assays (depositor defined):AID2582, AID2599]. It counts as functional.

A further assay deals with T3, Caspase-3 (Homo sapiens, UniProt P42574).
T3 sequence (P42574 whole entry): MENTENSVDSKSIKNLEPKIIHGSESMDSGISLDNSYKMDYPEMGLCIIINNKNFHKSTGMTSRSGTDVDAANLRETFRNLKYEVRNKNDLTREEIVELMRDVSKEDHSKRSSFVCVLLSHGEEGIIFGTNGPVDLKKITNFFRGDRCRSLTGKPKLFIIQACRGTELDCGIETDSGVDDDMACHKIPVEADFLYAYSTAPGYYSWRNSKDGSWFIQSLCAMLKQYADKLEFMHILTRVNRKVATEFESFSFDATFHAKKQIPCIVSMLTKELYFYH
As to the kind of experiment: SAR Analysis of small molecule inhibitors of Sentrin-specific proteases (SENPs) using a Caspase-3 Selectivity assay. [Related pubchem assays (depositor defined):AID2540, AID2599, AID434973, AID489001]. It counts as functional.

A further assay addresses Steroidogenic factor 1 (Homo sapiens, UniProt Q13285). As to the kind of experiment: Counterscreen for inverse agonists of the liver receptor homolog-1 (LRH-1; NR5A2): Luminescence-based cell-based high throughput dose response assay to identify inverse agonists of the Steroidogenic Factor 1 Nuclear Receptor (SF1; NR5A1). In kind it is functional.
The target in assay [5] is Nuclear receptor subfamily 5 group A member 2 (Homo sapiens, UniProt O00482). In kind it is functional, cell-based.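 Further: HEK293T cells transfected with LRH-1 and a StAR promoter luciferase reporter; potency for inhibitors that lower LRH-1 driven reporter light.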
Assay [6] can be described thus: nonselective StAR promoter luciferase inhibitors – cell-based, luminescence, luciferase reporter, counter-screen for LRH-1 inverse agonist project, dose response (AID 651969). In kind it is functional.
Assay [7] in a line: NIH3T3 cell viability loss – ATP luminescence, mouse fibroblasts, counter-screen, dose response (AID 2010).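 Further: cells exposed to compound for about 90 hours before reading.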 In kind it is functional, cell-based.
The next assay addresses Protein Wnt-3a (Mus musculus, UniProt P27467). As to the kind of experiment: antagonism of Wnt3a pathway luciferase reporter – Wnt-LIGHT cells, luminescence, selectivity assay for Gli-SUFU antagonist project, dose response (AID 651570).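 Further: Wnt-LIGHT reporter cells stimulated with conditioned medium from Wnt3a-producing cells.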 In kind it is functional. The note with it: read-out: IC50_Mean.
The nature of assay [8]: Trypanosoma cruzi growth suppression in host cells – NIH3T3 host cells, beta-gal luminescence, confirmation (AID 2044).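 Further: intracellular parasites grown in NIH/3T3 mouse fibroblasts as host cells; luminescent beta-galactosidase reporter signal from transgenic T. cruzi replicating inside host cells; inhibitors lower the luminescence signal.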 It counts as functional, cell-based.
In assay [9] the test system is HEK293. As to the kind of experiment: cells. In kind it is functional, cell-based. The note with it: Homo sapiens.
For assay [10], the system named is HEK293. Briefly: NOD2 signaling inhibitors in MDP-stimulated cells, cell-based, uHTS, luminescence (AID 2001). In kind it is functional. Conditions: Homo sapiens.
The target of assay [11] is Nucleotide-binding oligomerization domain-containing protein 2 (Homo sapiens, UniProt Q9HC29). Briefly: inhibition of NOD2-driven NF-kB reporter – cell-based, luminescence, uHTS, HEK293 (AID 1566). It counts as functional.
Assay [12] relates to HEK293. Briefly: inhibition of NOD1-driven NF-kB reporter – cell-based, luminescence, uHTS, primary screen (AID 1578). In kind it is functional. The note with it: Homo sapiens.
The test system of assay [13] is HEK293. As to the kind of experiment: cells. In kind it is functional, cell-based. Conditions: Homo sapiens. This is another data set of the same source.
Assay [14] deals with HEK293. Briefly: cells. It counts as functional, cell-based. The note with it: Homo sapiens. This is another data set of the same source.

Calls of active or inactive are those of the source. Some results are limits rather than exact numbers.

Protein Wnt-3a, sequence (P27467 whole entry): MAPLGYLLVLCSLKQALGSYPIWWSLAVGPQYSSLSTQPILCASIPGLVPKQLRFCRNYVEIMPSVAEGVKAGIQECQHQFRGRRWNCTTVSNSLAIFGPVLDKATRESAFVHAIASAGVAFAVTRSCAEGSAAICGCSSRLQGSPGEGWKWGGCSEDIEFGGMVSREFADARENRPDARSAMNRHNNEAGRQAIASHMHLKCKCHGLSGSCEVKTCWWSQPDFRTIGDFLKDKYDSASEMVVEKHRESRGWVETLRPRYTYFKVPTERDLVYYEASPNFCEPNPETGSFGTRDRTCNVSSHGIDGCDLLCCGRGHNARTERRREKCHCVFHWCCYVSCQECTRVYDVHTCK
Steroidogenic factor 1, sequence (Q13285 whole entry): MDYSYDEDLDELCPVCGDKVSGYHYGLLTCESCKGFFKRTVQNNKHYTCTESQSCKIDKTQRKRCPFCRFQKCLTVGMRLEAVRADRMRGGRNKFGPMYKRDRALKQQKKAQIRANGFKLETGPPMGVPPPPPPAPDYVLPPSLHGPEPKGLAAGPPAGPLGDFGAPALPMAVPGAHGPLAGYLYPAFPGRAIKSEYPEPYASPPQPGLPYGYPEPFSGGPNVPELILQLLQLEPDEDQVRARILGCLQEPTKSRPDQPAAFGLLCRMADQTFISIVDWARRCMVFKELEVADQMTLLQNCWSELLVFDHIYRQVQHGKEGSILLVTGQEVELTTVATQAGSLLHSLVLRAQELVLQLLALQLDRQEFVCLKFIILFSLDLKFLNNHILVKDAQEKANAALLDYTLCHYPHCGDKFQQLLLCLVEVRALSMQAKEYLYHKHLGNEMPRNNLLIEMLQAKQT
Nucleotide-binding oligomerization domain-containing protein 2, sequence (Q9HC29 whole entry, the tested form may be a part): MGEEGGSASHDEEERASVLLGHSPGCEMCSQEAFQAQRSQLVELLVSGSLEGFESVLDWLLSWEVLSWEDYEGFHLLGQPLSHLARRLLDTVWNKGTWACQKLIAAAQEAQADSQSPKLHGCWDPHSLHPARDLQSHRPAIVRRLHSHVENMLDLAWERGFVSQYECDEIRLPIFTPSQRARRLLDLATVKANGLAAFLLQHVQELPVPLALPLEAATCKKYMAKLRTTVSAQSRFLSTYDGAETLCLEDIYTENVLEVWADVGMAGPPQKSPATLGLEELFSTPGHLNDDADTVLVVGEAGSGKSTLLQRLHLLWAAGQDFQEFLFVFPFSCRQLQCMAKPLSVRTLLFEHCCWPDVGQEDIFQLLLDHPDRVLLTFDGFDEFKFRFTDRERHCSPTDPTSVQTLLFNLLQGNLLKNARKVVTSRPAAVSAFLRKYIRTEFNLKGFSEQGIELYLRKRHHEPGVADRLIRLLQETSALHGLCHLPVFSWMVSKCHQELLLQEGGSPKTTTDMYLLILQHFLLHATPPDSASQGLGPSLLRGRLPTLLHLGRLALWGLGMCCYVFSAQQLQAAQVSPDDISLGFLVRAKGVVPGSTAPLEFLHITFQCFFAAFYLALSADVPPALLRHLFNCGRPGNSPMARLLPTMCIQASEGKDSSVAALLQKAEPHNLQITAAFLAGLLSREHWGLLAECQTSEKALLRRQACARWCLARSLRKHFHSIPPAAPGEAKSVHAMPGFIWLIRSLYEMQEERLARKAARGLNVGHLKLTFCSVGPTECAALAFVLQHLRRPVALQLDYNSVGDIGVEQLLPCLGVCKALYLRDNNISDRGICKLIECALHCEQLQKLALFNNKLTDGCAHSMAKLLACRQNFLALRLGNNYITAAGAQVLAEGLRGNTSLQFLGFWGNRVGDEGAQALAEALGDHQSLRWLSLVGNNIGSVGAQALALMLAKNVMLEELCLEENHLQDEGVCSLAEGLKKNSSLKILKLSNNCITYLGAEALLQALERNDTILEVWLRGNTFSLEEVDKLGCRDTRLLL
Nuclear receptor subfamily 5 group A member 2, sequence (O00482 whole entry): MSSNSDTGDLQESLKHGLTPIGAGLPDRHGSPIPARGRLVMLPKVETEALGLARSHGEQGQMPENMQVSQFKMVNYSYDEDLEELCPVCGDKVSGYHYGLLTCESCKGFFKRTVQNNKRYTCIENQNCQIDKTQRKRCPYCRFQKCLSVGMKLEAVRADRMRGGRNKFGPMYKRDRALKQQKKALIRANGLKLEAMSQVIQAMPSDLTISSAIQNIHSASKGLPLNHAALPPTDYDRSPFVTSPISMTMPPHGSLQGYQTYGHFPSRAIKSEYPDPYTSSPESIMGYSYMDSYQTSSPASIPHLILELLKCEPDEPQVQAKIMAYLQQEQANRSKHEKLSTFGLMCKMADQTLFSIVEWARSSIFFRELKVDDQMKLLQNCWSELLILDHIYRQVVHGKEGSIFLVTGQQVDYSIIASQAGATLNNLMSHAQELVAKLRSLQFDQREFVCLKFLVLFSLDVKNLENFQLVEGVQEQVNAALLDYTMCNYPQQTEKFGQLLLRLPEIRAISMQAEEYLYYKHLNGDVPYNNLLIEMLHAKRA
Ras and Rab interactor 1/Tyrosine-protein kinase ABL1, sequence (P00519 whole entry): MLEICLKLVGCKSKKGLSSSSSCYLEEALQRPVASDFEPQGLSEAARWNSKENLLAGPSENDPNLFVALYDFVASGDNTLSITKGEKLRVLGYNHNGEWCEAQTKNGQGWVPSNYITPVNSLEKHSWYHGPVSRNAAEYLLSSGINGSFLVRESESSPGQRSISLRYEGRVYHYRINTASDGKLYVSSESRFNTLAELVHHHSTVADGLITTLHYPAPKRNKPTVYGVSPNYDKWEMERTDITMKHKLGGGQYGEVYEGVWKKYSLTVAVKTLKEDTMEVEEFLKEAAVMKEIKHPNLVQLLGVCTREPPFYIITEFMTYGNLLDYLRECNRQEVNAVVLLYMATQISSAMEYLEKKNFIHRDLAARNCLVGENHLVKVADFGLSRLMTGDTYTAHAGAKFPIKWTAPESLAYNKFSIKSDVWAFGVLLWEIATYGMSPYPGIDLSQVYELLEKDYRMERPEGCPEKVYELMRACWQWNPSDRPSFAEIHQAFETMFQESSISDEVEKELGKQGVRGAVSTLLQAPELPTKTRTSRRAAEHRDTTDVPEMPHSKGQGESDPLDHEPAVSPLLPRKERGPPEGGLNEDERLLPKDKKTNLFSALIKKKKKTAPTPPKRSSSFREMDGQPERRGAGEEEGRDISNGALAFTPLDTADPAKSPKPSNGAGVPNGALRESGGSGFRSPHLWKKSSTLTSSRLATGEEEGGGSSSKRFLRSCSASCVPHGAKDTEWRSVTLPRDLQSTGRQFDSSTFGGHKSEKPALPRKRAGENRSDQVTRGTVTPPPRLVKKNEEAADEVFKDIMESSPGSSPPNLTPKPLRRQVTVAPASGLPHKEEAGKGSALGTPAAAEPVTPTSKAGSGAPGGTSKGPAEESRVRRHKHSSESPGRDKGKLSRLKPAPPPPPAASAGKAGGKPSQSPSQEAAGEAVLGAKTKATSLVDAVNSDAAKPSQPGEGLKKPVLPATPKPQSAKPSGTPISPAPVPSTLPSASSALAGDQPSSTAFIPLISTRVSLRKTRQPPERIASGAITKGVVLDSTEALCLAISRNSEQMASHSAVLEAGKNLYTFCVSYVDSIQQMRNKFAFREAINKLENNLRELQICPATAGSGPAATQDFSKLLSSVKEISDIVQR
Ras and Rab interactor 1/Tyrosine-protein kinase ABL1, sequence (Q13671 whole entry): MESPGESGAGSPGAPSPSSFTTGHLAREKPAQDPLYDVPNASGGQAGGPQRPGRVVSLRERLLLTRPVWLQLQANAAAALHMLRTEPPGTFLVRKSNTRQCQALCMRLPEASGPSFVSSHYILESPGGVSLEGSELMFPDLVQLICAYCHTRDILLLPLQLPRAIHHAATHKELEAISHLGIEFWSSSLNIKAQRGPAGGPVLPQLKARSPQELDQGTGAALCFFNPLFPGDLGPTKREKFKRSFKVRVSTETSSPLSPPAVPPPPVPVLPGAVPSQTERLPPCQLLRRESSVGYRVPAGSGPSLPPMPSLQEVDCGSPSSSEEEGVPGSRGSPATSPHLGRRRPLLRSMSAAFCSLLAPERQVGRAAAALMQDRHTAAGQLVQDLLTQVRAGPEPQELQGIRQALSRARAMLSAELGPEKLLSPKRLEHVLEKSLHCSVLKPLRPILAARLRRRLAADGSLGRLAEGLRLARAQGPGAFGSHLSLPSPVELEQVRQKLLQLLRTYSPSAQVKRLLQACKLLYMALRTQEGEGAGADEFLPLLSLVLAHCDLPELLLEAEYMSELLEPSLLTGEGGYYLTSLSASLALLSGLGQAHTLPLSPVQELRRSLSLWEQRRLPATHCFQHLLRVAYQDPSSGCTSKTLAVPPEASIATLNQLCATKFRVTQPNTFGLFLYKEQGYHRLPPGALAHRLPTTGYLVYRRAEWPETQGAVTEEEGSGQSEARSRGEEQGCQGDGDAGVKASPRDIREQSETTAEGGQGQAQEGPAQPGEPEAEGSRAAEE
Adenosylmethionine-8-amino-7-oxononanoate aminotransferase, sequence (P9WQ81 whole entry): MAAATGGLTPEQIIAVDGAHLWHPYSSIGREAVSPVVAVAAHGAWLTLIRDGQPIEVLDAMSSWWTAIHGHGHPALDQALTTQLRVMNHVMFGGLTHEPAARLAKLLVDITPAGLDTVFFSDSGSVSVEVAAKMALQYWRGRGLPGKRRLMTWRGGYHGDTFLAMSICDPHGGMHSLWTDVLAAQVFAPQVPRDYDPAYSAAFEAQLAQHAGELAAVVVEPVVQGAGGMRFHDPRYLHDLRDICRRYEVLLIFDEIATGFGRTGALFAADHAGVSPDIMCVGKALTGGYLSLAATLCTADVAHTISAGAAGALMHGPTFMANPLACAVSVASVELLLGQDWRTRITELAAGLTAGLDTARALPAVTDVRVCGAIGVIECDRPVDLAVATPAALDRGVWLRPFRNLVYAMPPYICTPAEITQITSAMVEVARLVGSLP

Consider `Cn1c(=O)c2c(nc(OCc3cccnc3)n2Cc2ccccc2)n(C)c1=O`, for which the AC50 in [1] is 1 µM (active).
Consider `CC(=O)Nc1ccc(NC(=O)C2CCN(C(=O)c3cccs3)CC2)cc1`, for which the IC50 in assay [2] was 1.9 µM (active).
Consider `COc1ccccc1OCc1ccc(C(=O)Nc2ccccc2F)cc1`, for which the IC50 in assay [3] is > 99 µM (inactive); in assay [4], > 99 µM (inactive); on Caspase-3, 8.88 µM (active).
`Cc1cc(OCC(=O)Nc2nccs2)c2c(C)cc(=O)oc2c1`: the IC50 on Steroidogenic factor 1 is 0.112 µM (active); in assay [5] it was 0.168 µM (active); in assay [6] it was 35.9 µM (inactive).
Regarding `C=C(C)CSc1nc2sc3c(c2c(=O)n1C1CCCCC1)CCN(C)C3`, the concentration for a half-maximal effect (EC50) in assay [7] was > 60 µM (not active); in [8], 0.403 µM (active). Further, on Protein Wnt-3a, the IC50 was 13.5 µM (active).
For `Cc1nc2cc(N3CCN(C)CC3)c(NC(=O)Cc3ccccc3)cc2c(=O)n1Cc1ccccc1`, the IC50 is 8.5 µM (active) in the assay on HEK293 [9]; > 20 µM (inactive) in the assay on HEK293 [10]; 37.5 µM (inactive) on Protein Wnt-3a; > 20 µM (inactive) in the assay with HEK293 [13]; > 20 µM (inactive) with HEK293 [14]. Besides, the EC50 in assay [11] was 9.39 µM (active); with HEK293 [12] it was > 20 µM (inactive).
